Laboratory results: PubChem BioAssay AID280 (DTP/NCI, 2004)
Several values for one entry are separate records, joined by “and”; a condition that tells them apart may be missing. Equal values may be shown once. Inconclusive results and toxic doses are left out.

System: nude mice, LOX melanoma ip, survival T/C
Experiment: NCI In Vivo Anticancer Drug Screen. Data for tumor model Human Amelanotic Melanoma (LOX) (intraperitoneal) in NU/NU BALB/C (nude) mice
Details: endpoint: median survival time, schedule: Q04DX003 (ip), higher = longer survival
Method: The antitumor activity of compounds was measured in mice bearing transplantable tumors. Survival or tumor size were measured and the results are expressed as the measurement made in the treated group (T) divided by the measurement made in the vehicle treated control group (C). The tumor model used in this assay is Human Amelanotic Melanoma (LOX) (intraperitoneal) in NU/NU BALB/C (nude) mice

[1] = dose: 75.0 mg/kg/injection, vehicle: Klucel (hydroxypropylcellulose) (HPC)
[2] = dose: 150.0 mg/kg/injection, vehicle: Klucel (hydroxypropylcellulose) (HPC)
[3] = dose: 300.0 mg/kg/injection, vehicle: Klucel (hydroxypropylcellulose) (HPC)
[4] = dose: 600.0 mg/kg/injection, vehicle: Klucel (hydroxypropylcellulose) (HPC)
[5] = dose: 1200.0 mg/kg/injection, vehicle: Klucel (hydroxypropylcellulose) (HPC)
[6] = dose: 75.0 mg/kg/injection, vehicle: saline with Tween-80
[7] = dose: 150.0 mg/kg/injection, vehicle: saline with Tween-80
[8] = dose: 300.0 mg/kg/injection, vehicle: saline with Tween-80
[9] = dose: 25.0 mg/kg/injection, vehicle: saline with Tween-80
[10] = dose: 50.0 mg/kg/injection, vehicle: saline with Tween-80
[11] = dose: 100.0 mg/kg/injection, vehicle: saline with Tween-80
[12] = dose: 200.0 mg/kg/injection, vehicle: saline with Tween-80
[13] = dose: 37.5 mg/kg/injection, vehicle: saline with Tween-80

For `CC(C)(C)c1ccc(C(=O)N2CCOC23CCCCC3)cc1`, the T/C [1] was 98 % of control, the T/C [2] was 95 % of control and the T/C [3] was 92 % of control. The T/C [4] was 107 % of control and the T/C [5] was 107 % of control.
In the case of `COc1cc(C)c(C2NC(=O)c3ccccc3N2)cc1C` (stereo not given), the T/C [4] is reported as 166 % of control and the T/C [5] is reported as 192 % of control.
For `Cc1ccc2nc(-c3ccc4nc(-c5ccc(N=Nc6ccc(-c7nc8ccc(-c9nc%10ccc(C)c(S(=O)(=O)O)c%10s9)cc8s7)cc6)cc5)sc4c3)sc2c1S(=O)(=O)O`, the T/C (dose: 75.0 mg/kg/injection, vehicle: suspension in saline) was 92 % of control and the T/C (dose: 150.0 mg/kg/injection, vehicle: suspension in saline) was 96 % of control.
For `COC1C(O)CC(OC2CC(Oc3cc4cc5c(c(O)c4c(O)c3C)C(=O)[C@@H](OC3CC(OC4CC(OC6CC(C)(O)C(OC(C)=O)C(C)O6)C(O)C(C)O4)C(O)C(C)O3)[C@H]([C@H](OC)C(=O)[C@@H](O)[C@@H](C)O)C5)OC(C)C2OC(C)=O)OC1C` (stereo not given in full), the T/C (dose: 0.15 mg/kg/injection, vehicle: Klucel (hydroxypropylcellulose) (HPC)) was 116 % of control, the T/C (dose: 0.3 mg/kg/injection, vehicle: Klucel (hydroxypropylcellulose) (HPC)) was 314 % of control and the T/C (dose: 0.6 mg/kg/injection, vehicle: Klucel (hydroxypropylcellulose) (HPC)) was 198 % of control.
`COC1=C(C)C(=O)C2=C(C1=O)C(CO)N1C(C#N)C3CC4C(C1C2N1CCOC41)N3C` (stereo not given) was tested, and the T/C (dose: 0.63 mg/kg/injection, vehicle: acid diluted with saline) was 109 % of control, the T/C (dose: 0.63 mg/kg/injection, vehicle: saline + alcohol) was 122 % of control and the T/C (dose: 1.25 mg/kg/injection, vehicle: acid diluted with saline) was 123 % of control. The T/C (dose: 2.5 mg/kg/injection, vehicle: acid diluted with saline) was 115 % of control and the T/C (dose: 2.5 mg/kg/injection, vehicle: saline + alcohol) was 168 % of control.
In the case of `CCCCCC[Se][Se]CCCCCC`, the T/C (dose: 37.5 mg/kg/injection, vehicle: Klucel (hydroxypropylcellulose) (HPC)) is reported as 98 % of control, the T/C [1] is reported as 96 % of control and the T/C [2] is reported as 93 % of control. For the same compound, the T/C [3] was 105 % of control.
`S=C(NCNC(=S)c1ccncc1)c1ccncc1` was tested, and the T/C [6] was 104 % of control, the T/C [7] was 103 % of control and the T/C [8] was 106 % of control. The T/C (dose: 600.0 mg/kg/injection, vehicle: saline with Tween-80) was 87 % of control.
For `C[n+]1c(-c2ccc(NC(=O)c3ccc(C(=O)Nc4ccc(-c5cn6ccccc6[n+]5C)cc4)cc3)cc2)cn2ccccc21`, the T/C (dose: 12.5 mg/kg/injection, vehicle: saline with Tween-80) was 114 % of control, the T/C [9] was 103 % of control and the T/C [10] was 97 % of control.
With `O=CC(O)C(O)C(O)C(O)CO` (stereo not given) the T/C (dose: 75.0 mg/kg/injection, vehicle: saline) was 112 % of control and 99 % of control, the T/C (dose: 150.0 mg/kg/injection, vehicle: saline) was 107 % of control and 98 % of control and the T/C (dose: 300.0 mg/kg/injection, vehicle: saline) was 102 % of control and 106 % of control. The T/C (dose: 600.0 mg/kg/injection, vehicle: saline) was 95 % of control and the T/C (dose: 1200.0 mg/kg/injection, vehicle: saline) was 98 % of control and 99 % of control.
For `NC(=O)C1C=CN(Cc2ccccc2)C=C1`, the T/C [10] was 112 % of control, the T/C [11] was 117 % of control and the T/C [12] was 123 % of control.
For `CC[C@@]1(O)C(=O)OCc2c1cc1n(c2=O)Cc2cc3ccccc3nc2-1`, the T/C (dose: 5.0 mg/kg/injection, vehicle: saline with Tween-80) was 284 % of control.
With `O=C(O)Cc1cccc2c(=O)cc(-c3ccccc3)oc12` the T/C (dose: 25.0 mg/kg/injection, vehicle: sodium bicarbonate) was 108 % of control and the T/C (dose: 50.0 mg/kg/injection, vehicle: sodium bicarbonate) was 119 % of control.
In the case of `COc1cc2c(c(OC)c1OC)-c1ccc(SC)c(=O)cc1[C@@H](NC(C)=O)CC2`, the T/C (dose: 0.25 mg/kg/injection, vehicle: Klucel (hydroxypropylcellulose) (HPC)) is reported as 163 % of control, the T/C (dose: 0.5 mg/kg/injection, vehicle: Klucel (hydroxypropylcellulose) (HPC)) is reported as 172 % of control and 196 % of control and the T/C (dose: 0.82 mg/kg/injection, vehicle: Klucel (hydroxypropylcellulose) (HPC)) is reported as 173 % of control. For the same compound, the T/C (dose: 1.38 mg/kg/injection, vehicle: Klucel (hydroxypropylcellulose) (HPC)) was 193 % of control.
For `C/C(=N\NC(=S)N1CCN(c2ccccn2)CC1)c1ccccn1`, the T/C (dose: 10.0 mg/kg/injection, vehicle: water) was 89 % of control, the T/C (dose: 20.0 mg/kg/injection, vehicle: water) was 95 % of control and the T/C (dose: 40.0 mg/kg/injection, vehicle: water) was 94 % of control. For the same compound, the T/C (dose: 80.0 mg/kg/injection, vehicle: water) was 97 % of control.
In the case of `COc1ccc(C[C@@H]2NC[C@@H](O)[C@@H]2OC(C)=O)cc1`, the T/C [13] is reported as 101 % of control, the T/C [6] is reported as 101 % of control and the T/C [7] is reported as 103 % of control. The T/C [8] was 101 % of control.
For `Cc1ccoc1`, the T/C [9] was 94 % of control, the T/C [10] was 95 % of control and the T/C [11] was 102 % of control. The T/C [12] was 95 % of control and the T/C (dose: 400.0 mg/kg/injection, vehicle: saline with Tween-80) was 96 % of control.
`Nc1n[nH]c2ccccc12` was tested, and the T/C (dose: 75.0 mg/kg/injection, vehicle: other) was 107 % of control and the T/C (dose: 150.0 mg/kg/injection, vehicle: other) was 98 % of control.
With `Cc1nc(C(Cl)(Cl)Cl)[nH]c(=O)c1SCCO` the T/C (dose: 75.0 mg/kg/injection, vehicle: distilled water + Tween-80 + alcohol) was 102 % of control, the T/C (dose: 150.0 mg/kg/injection, vehicle: distilled water + Tween-80 + alcohol) was 116 % of control and the T/C (dose: 300.0 mg/kg/injection, vehicle: distilled water + Tween-80 + alcohol) was 101 % of control. The T/C (dose: 600.0 mg/kg/injection, vehicle: distilled water + Tween-80 + alcohol) was 117 % of control.
For `COc1ccc(S(=O)(=O)N=N/C=C2\C=CC=CN2O)cc1OC`, the T/C (dose: 9.38 mg/kg/injection, vehicle: saline with Tween-80) was 116 % of control, the T/C (dose: 18.75 mg/kg/injection, vehicle: saline with Tween-80) was 101 % of control and the T/C [13] was 94 % of control. For the same compound, the T/C (dose: 54.0 mg/kg/injection, vehicle: saline with Tween-80) was 124 % of control, the T/C [6] was 105 % of control and the T/C [7] was 173 % of control. For the same compound, the T/C (dose: 250.0 mg/kg/injection, vehicle: saline with Tween-80) was 165 % of control and the T/C (dose: 416.67 mg/kg/injection, vehicle: saline with Tween-80) was 156 % of control.
